Consider twelve molecules from PubChem BioAssay (NCI).

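Five concentrations, 48 hours, 96-well plates. GI50 marks 50% less growth. TGI: total growth inhibition.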 Bounds are passed on as bounds.

Some test systems named below: KM12 colon; SW-620 colon; NCI-H23 lung; CCRF-CEM leukemia; SN12C renal; SK-OV-3 ovarian; COLO 205 colon; SK-MEL-5 melanoma; LOX IMVI melanoma; SR leukemia.
What all share (experiment): NCI-60 cell line screen, 48 h

Consider `COc1ccccc1NC(=O)C(CC(C(=O)Nc1ccccc1OC)/C(C)=N/Nc1ccc([N+](=O)[O-])cc1[N+](=O)[O-])/C(C)=N/Nc1ccc([N+](=O)[O-])cc1[N+](=O)[O-]` (stereo not drawn), for which the TGI in the assay with KM12 colon, with SW-620 colon, in the assay on NCI-H23 lung, in the assay with CCRF-CEM leukemia, with SN12C renal and in the assay on SK-OV-3 ovarian was above 100 µM each time. Further, the TGI in the assay on COLO 205 colon, in the assay with SK-MEL-5 melanoma and in the assay on LOX IMVI melanoma was above 100 µM in each case.

As for `COc1ccc(CCN2CCc3c(C)c(C#N)c4nc5ccccc5n4c32)cc1OC`, the TGI was 97.3 µM in the assay on SW-620 colon; above 100 µM in the assay with NCI-H23 lung; above 100 µM in the assay on CCRF-CEM leukemia; above 100 µM with SN12C renal; above 100 µM in the assay with SK-OV-3 ovarian; 89.8 µM in the assay on COLO 205 colon. In addition, the figures for the TGI with SK-MEL-5 melanoma and with LOX IMVI melanoma were 52 µM and above 100 µM, respectively.

Consider `COc1ccc(C2CCc3cc4c(cc3/C2=N/OC(C)=O)OCO4)cc1OC` (stereo not drawn), for which the TGI is 54.8 µM with KM12 colon; above 100 µM in the assay on SW-620 colon; 72.6 µM in the assay on NCI-H23 lung; above 100 µM with CCRF-CEM leukemia; above 100 µM in the assay with SN12C renal; 95.3 µM in the assay on SK-OV-3 ovarian. The TGI in the assay on COLO 205 colon was found to be 63.5 µM; in the assay on SK-MEL-5 melanoma, 23 µM; in the assay on LOX IMVI melanoma it was 33.1 µM.

Consider `CCOC(=O)[C@H]1Nc2ccccc2C2c3ccccc3CC21` (stereo partly drawn), for which the TGI was above 100 µM in the assay on SR leukemia; above 100 µM in the assay with KM12 colon; above 100 µM with SW-620 colon; above 100 µM with NCI-H23 lung; 96.3 µM in the assay on SN12C renal; above 100 µM with COLO 205 colon. Moreover, the TGI in the assay on SK-MEL-5 melanoma was 54.6 µM; in the assay on LOX IMVI melanoma it was above 100 µM.

Take `CCCCCCCCCCCCCc1nn[nH]n1`: the TGI stood at 32.9 µM with KM12 colon; 41.4 µM in the assay with SW-620 colon; 44.6 µM in the assay with NCI-H23 lung; 41.7 µM in the assay on CCRF-CEM leukemia; 35.9 µM in the assay with SN12C renal; 47.3 µM with SK-OV-3 ovarian. Moreover, the results for the TGI in the assay on COLO 205 colon, with SK-MEL-5 melanoma and in the assay on LOX IMVI melanoma were 36.6 µM, 32.5 µM and 35.4 µM, respectively.

As for `C=[CH][Sn]([CH]=C)([O]c1cccc2cccnc12)[O]c1cccc2cccnc12`, the GI50 in the assay on KM12 colon is 3.2 µM; in the assay with SW-620 colon, 1.13 µM; in the assay on NCI-H23 lung, 2.32 µM; in the assay with SN12C renal, 4.45 µM; in the assay with SK-OV-3 ovarian it was 14.5 µM; with COLO 205 colon, 1.79 µM. For the same molecule, the GI50 is 1.94 µM in the assay with SK-MEL-5 melanoma and 1.46 µM in the assay with LOX IMVI melanoma. Besides, the TGI in the assay with KM12 colon was determined as 7.34 µM; with SW-620 colon, 3.44 µM; in the assay on NCI-H23 lung, 6.87 µM; in the assay with SN12C renal, 17.5 µM; with SK-OV-3 ovarian, 44.8 µM; in the assay with COLO 205 colon, 3.19 µM. The TGI worked out at 5.44 µM in the assay on SK-MEL-5 melanoma and 4.86 µM in the assay with LOX IMVI melanoma.

Consider `COC(=O)/C(=N\NC(N)=S)C(C#N)c1ccccc1` (stereo not drawn), for which the TGI in the assay on KM12 colon, in the assay on SW-620 colon, in the assay on NCI-H23 lung, in the assay with CCRF-CEM leukemia, in the assay on SN12C renal and in the assay with SK-OV-3 ovarian was above 100 µM throughout. Besides, the TGI in the assay on COLO 205 colon, in the assay with SK-MEL-5 melanoma and with LOX IMVI melanoma was above 100 µM each time.

For the molecule `N[C@@H]1CCCC[C@@H]1N.O=P([O-])([O-])CN(CP(=O)([O-])[O-])CP(=O)([O-])[O-].[Pt+2]`, the GI50 in the assay with KM12 colon, in the assay on SW-620 colon, in the assay on CCRF-CEM leukemia, with SN12C renal, with SK-OV-3 ovarian and with COLO 205 colon was above 100 µM throughout. Moreover, the GI50 with SK-MEL-5 melanoma and in the assay with LOX IMVI melanoma was above 100 µM each time. The TGI with KM12 colon, with SW-620 colon, with CCRF-CEM leukemia, with SN12C renal, in the assay with SK-OV-3 ovarian and in the assay with COLO 205 colon was above 100 µM each time. Moreover, the TGI with SK-MEL-5 melanoma and in the assay with LOX IMVI melanoma was above 100 µM in each case.

Consider `O=C(Cc1csc2nc(-c3ccc(Br)cc3)cn12)N/N=C/c1ccc(O)cc1`, for which the GI50 with KM12 colon is 17.6 µM; with SW-620 colon, 31.5 µM; with NCI-H23 lung it was 7.5 µM; in the assay with CCRF-CEM leukemia, 12.2 µM; in the assay on SN12C renal it was 15.4 µM; with SK-OV-3 ovarian it was 52.5 µM. In addition, the GI50 was 43.3 µM in the assay on COLO 205 colon, 7.14 µM in the assay with SK-MEL-5 melanoma and 11.1 µM with LOX IMVI melanoma. For the same molecule, the TGI in the assay on KM12 colon is 76.7 µM; with SW-620 colon, above 100 µM; with NCI-H23 lung, 32.2 µM; in the assay with CCRF-CEM leukemia it was 79.9 µM; in the assay with SN12C renal, 44.1 µM; with SK-OV-3 ovarian, above 100 µM. Further, the values for the TGI in the assay with COLO 205 colon, with SK-MEL-5 melanoma and in the assay on LOX IMVI melanoma were above 100 µM, 22.2 µM and 26.1 µM, respectively.

As for `FC1OC2OC1C(OCc1ccccc1)C(OCc1ccccc1)C2OCc1ccccc1` (stereo not drawn), the TGI in the assay on KM12 colon is above 100 µM; with SW-620 colon it was above 100 µM; in the assay on NCI-H23 lung, above 100 µM; with CCRF-CEM leukemia it was 75.8 µM; in the assay with SN12C renal, above 100 µM; in the assay on SK-OV-3 ovarian it was above 100 µM. The TGI in the assay on COLO 205 colon, with SK-MEL-5 melanoma and in the assay on LOX IMVI melanoma was above 100 µM each time.

Regarding `COc1ccc(CCN=C2CCC(C(=O)NCCc3ccc(OC)c(OC)c3)N2)cc1OC` (stereo not drawn), the TGI with KM12 colon, in the assay with SW-620 colon, with NCI-H23 lung, in the assay on CCRF-CEM leukemia, in the assay with SN12C renal and in the assay on SK-OV-3 ovarian was above 100 µM in each case. Besides, the TGI with COLO 205 colon, in the assay with SK-MEL-5 melanoma and with LOX IMVI melanoma was above 100 µM in each case.

As to `O=C(Nc1cccc(NC(=O)c2cc(=O)c3ccccc3o2)n1)c1cc(=O)c2ccccc2o1`, the TGI with KM12 colon, in the assay on SW-620 colon, in the assay on NCI-H23 lung, in the assay with CCRF-CEM leukemia, in the assay on SK-OV-3 ovarian and in the assay with COLO 205 colon was above 100 µM in each case. Also, the TGI in the assay with SK-MEL-5 melanoma and in the assay on LOX IMVI melanoma was above 100 µM in each case.
